We go through 18 compounds from US8389541B2, “Inhibitors of protein tyrosine kinase activity” (MethylGene Inc., priority 2007, dated 2013).

Bounds are passed on as bounds.

In one test the target is T1, c-Met (Homo sapiens, UniProt P08581).
T1 construct: endogenous in cells; host or cells: MKN45 gastric carcinoma cells
As to the kind of experiment: Inhibition of c-Met phosphorylation in MKN45 cells (direct ELISA). Type of test: cell-based. As to conditions: 3 h treatment, read-out: CMET ELISA IN MKN45 IC50. The text has this:
The following assay is used to determine inhibition of c-Met phosphorylation.
The c-Met receptor is expressed in numerous cancer cell lines derived from tumors of epithelial origin. In MKN45 gastric carcinoma cells the c-Met gene is amplified, resulting in several-fold overexpression of the receptor and its constitutive activation. For this reason constitutively high levels of ERK1/2 are also detected in these cells, independently of HGF-added stimulation (Smolen G A, Sordella R, Muir B, Mohapatra G, Barmettler A, Archibald H, et al. Amplification of MET may identify a subset of cancers with extreme sensitivity to the selective tyrosine kinase inhibitor PHA-665752. Proc Natl Acad Sci USA 2006). We have developed a sensitive method to follow c-Met phosphorylation in these cells. In previous studies with earlier generation c-Met inhibitors, we established that the IC50s for the inhibition of c-Met phosphorylation were identical using this novel ELISA approach and standard western blot procedure, with antibodies directed against the activating autocatalysis tyrosine residues of c-MET (Tyr Y1230-34-35).
Cell treatments: MKN45 cells are seeded into wells of 96-well plates at a density of 3×10^4 cells/well in RPMI medium supplemented with 10% FBS. HA-TPR-RON expressing 293T (clone 18) cells are seeded into wells of 96-well plates at a density of 3×10^4 cells/well in DMEM medium supplemented with 10% FBS. Cells are grown for 48 h prior to treatments with compounds of interest. Inhibitors are added to the medium in triplicate wells at the indicated doses. After 3 h of treatment, media is aspirated and cells are lysed by one freeze-thaw cycle in 50 μL/well hypotonic lysis buffer (25 mM HEPES pH 7.5, 10 mM NaCl with 1 mM 4-(2-aminoethyl)benzenesulfonyl fluoride hydrochloride, 200 μM sodium orthovanadate, 1 mM sodium fluoride, 10 μg/mL of leupeptin, 10 μg/mL of aprotinin/mL, 1 μg/mL of pepstatin and 50 μg/mL Na-p-tosyl-L-lysine chloromethyl ketone hydrochloride.
Detection of phosphorylated c-Met by direct ELISA: Lysate samples (5 μL) from wells of treatment plates are transferred to 80 μL of binding buffer (25 mM HEPES pH 7.5, 200 mM NaCl) in wells of high binding white polysterene 96-well plates (Corning). After an overnight protein binding incubation at 4° C., lysates are aspirated and wells are blocked for 1 h at 37° C. in TBST supplemented with 5% BSA. Plates are incubated with the primary antibodies anti-phospho-Tyrosine (Millipore, 4G10) diluted 1/15000 in TBST supplemented with 5% BSA for 1 h at room temperature. Plates are washed 3 times on a plate washer (SkanWasher, Molecular Devises), and incubated with the reporter antibody […] (Sigma) diluted 1/15000 in TBST supplemented with 5% BSA, for 1 h at room temperature. Plates are washed 3 times with TBST using on a plate washer and subsequently incubated with chemiluminescent substrate solution (ECL, Roche). Luminescence signal is captured on a Polar Star Optima apparatus (BMG LabTech).
Average values of the triplicate samples are used to prepare IC50 curves using a 4-parameter fit model. These curves are calculated using, for example, GraFit 5.0 software. For assay standardization purpose, an internal control is included on each experimental test plate.

A further test has as its system DU145 cells. Description: Scatter assay in DU145 cells (HGF-stimulated). As to conditions: Homo sapiens, DU-145, last dose that created an inhibitory effect on scattering, 24 h, read-out: DU145 SCATT. INHIB IC50. Type of test: cell-based. As to the method:
Scatter assays in DU145. The scatter assay is performed as described previously (Miura H, Nishimura K, Tsujimura A, Matsumiya K, Matsumoto K, Nakamura T, et al. Effects of hepatocyte growth factor on E-cadherin-mediated cell-cell adhesion in DU145 prostate cancer cells. Urology 2001; 58(6):1064-9) for DU145 prostate carcinoma cells with the indicated modifications. In brief, DU145 cells (ATCC) are seeded in 24-well plates at a density of 7×10^3 cells/well in MEM medium complemented with 10% FBS and cultured for 48 h, to allow the formation of small compact colonies of cells. Inhibitors are subsequently added at a range of doses (0.00032-10 uM) for 3 h. Cells are then stimulated to migrate by the addition of HGF (in the form of conditioned medium from 293T cells over-expressing the human HGF gene) and the culture is continued for another 24 h. The IC50 values is defined as the last dose that created an inhibitory effect on scattering. For the purpose of standardization a control is carried on every test plates for the DU145 scattering assays.

For another test, the target named is T2, VEGF receptor KDR (Homo sapiens, UniProt P35968).
T2 construct: made in house; host or cells: Sf9 cells (Spodoptera frugiperda), baculovirus
As to the kind of experiment: In vitro receptor tyrosine kinase assay (DELFIA), VEGF receptor KDR. The test is classed as biochemical. As to conditions: GST-VEGFR2 806-1356, 0.6 uM ATP; read-out: VEGFR IC50. The text has this:
In the case of VEGF receptor KDR a 1.6-kb cDNA corresponding to the catalytic domain of VEGFR2 or KDR (Genbank accession number AF035121 amino acid 806 to 1356) is cloned into the Pst I site of the pDEST20 Gateway vector (Invitrogen) for the production of a GST-tagged version of that enzyme.
The GST-VEGFR2806-1356 protein is expressed in Sf9 cells (Spodoptera frugiperda) upon infection with recombinant baculovirus construct.
The supernatant is loaded onto a GST-agarose column (Sigma) equilibrated with PBS pH 7.3. Following a four column volume (CV) wash with PBS pH 7.3+1% Triton X-100 and 4 CV wash with buffer B (50 mM Tris pH 8.0, 20% glycerol and 100 mM NaCl), bound proteins are step eluted with 5 CV of buffer B supplemented with 5 mM DTT and 15 mM glutathion. […] Final GST-VEGFR2806-1356 protein preparations concentrations are about 0.7 mg/ml with purity approximating 70%.

The next test concerns A549 cells. As to the kind of experiment: Wound healing assay in A549 cells (HGF-stimulated). Type of test: cell-based. As to conditions: Homo sapiens, last dose that inhibited gap closing by more than 25%, 24 h, read-out: A549 WOUND_HEALING IC50. On the procedure: Wound healing assay in A549 cells. A549 cells (ATCC) are seeded in DMEM low glucose medium complemented with 10% FBS into 24-well plates at a density of 7.5×10^4 cells/well and grown to confluence (48 h). Inhibitors were added to the medium at a range of doses (0.00032-10 uM) for 3 h at which point a gap is introduced by scraping cells with a P1000 pipette tip. Cells are then stimulated to migrate by the addition of HGF (in the form of conditioned medium from 293T cells over-expressing the human HGF gene) and the culture is continued for 24 h. […] For the purpose of standardization, a control is carried on every assay plates.

In test [1] the target is recombinant human c-Met/HGF receptor (Homo sapiens, UniProt P08581). As to the kind of experiment: In vitro receptor tyrosine kinase assay (DELFIA), c-Met/HGF receptor.
Sequence of recombinant human c-Met/HGF receptor (P08581 1078-1337): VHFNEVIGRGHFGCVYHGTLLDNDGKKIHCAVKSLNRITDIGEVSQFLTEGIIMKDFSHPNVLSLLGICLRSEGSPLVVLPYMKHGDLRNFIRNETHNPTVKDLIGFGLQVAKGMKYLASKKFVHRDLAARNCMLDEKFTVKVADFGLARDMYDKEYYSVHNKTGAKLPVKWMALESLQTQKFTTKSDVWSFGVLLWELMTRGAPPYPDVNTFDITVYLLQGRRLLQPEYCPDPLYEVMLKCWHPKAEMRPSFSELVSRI

T1 sequence (P08581 25-1390): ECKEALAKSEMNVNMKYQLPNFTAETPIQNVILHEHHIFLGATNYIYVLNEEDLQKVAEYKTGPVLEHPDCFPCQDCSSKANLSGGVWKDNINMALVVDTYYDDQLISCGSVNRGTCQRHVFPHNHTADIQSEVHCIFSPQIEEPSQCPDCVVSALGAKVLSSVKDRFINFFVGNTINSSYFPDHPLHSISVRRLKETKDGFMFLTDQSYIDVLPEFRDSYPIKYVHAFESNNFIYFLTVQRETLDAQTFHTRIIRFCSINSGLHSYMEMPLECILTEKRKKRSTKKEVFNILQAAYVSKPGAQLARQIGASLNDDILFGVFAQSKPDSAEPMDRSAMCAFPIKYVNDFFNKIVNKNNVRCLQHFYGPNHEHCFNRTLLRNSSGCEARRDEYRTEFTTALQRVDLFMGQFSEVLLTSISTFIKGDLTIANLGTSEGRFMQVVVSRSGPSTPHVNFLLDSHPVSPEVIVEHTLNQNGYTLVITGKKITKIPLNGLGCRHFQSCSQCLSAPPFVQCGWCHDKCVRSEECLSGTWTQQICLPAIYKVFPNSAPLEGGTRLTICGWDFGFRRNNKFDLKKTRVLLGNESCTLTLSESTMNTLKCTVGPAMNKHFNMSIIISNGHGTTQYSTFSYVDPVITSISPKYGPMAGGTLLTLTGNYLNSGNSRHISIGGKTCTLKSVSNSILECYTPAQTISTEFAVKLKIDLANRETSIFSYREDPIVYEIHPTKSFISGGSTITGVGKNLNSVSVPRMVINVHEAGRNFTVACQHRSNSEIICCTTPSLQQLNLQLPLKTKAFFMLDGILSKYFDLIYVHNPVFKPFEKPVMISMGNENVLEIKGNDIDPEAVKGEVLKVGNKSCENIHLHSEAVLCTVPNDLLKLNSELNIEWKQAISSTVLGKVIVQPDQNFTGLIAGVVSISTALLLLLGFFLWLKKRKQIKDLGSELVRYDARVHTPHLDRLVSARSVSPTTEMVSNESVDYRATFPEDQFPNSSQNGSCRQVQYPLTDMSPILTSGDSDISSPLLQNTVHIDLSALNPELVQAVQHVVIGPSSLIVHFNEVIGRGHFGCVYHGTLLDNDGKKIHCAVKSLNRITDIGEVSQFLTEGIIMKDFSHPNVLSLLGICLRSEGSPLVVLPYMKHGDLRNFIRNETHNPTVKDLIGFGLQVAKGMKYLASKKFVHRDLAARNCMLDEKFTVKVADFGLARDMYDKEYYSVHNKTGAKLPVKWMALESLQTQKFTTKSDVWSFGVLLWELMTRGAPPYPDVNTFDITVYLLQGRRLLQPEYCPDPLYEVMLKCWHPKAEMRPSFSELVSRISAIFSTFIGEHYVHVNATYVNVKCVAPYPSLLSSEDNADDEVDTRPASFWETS
T2 sequence (P35968 806-1356): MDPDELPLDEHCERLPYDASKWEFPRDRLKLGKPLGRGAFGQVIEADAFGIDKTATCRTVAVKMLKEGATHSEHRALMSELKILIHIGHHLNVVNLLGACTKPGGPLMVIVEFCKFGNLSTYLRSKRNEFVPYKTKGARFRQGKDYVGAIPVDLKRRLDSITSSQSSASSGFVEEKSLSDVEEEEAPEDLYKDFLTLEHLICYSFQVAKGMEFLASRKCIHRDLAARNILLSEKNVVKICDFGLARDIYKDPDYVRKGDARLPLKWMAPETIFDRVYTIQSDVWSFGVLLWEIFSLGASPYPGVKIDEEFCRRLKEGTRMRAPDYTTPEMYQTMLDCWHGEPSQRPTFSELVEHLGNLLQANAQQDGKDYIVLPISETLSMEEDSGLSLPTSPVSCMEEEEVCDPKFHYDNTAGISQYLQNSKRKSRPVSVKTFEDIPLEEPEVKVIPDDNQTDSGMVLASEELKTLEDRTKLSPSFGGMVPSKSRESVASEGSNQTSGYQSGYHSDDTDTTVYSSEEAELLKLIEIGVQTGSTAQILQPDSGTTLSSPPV

`COCCNCc1cccc(-c2cc3nccc(Oc4ccc(NC(=S)NC(=O)Cc5ccccc5)cc4F)c3s2)n1`: the IC50 (on c-Met; with DU145 cells; at VEGF receptor KDR; in the test with A549 cells; in test [1]) was less than 250 nM throughout.
Take `CS(=O)(=O)CCNCc1ccc(-c2cc3nccc(Oc4ccc(NC(=S)NC(=O)Cc5ccc(F)cc5)cc4F)c3s2)cc1`: the IC50 on c-Met was less than 250 nM; in the test with DU145 cells, 250 to 500 nM; at VEGF receptor KDR, less than 250 nM; with A549 cells, 250 to 500 nM; in test [1], less than 250 nM.
Turning to `COCCNCc1ccc(-c2cc3nccc(Oc4ccc(NC(=O)C5(C(=O)Nc6ccccc6)CC5)cc4F)c3s2)cc1` [drawing 310], the concentration for half-maximal inhibition (IC50) (at c-Met; with DU145 cells; at VEGF receptor KDR; in the test on A549 cells; in test [1]) was less than 250 nM throughout.
As for `COCCNCc1ccc(-c2cc3nccc(Oc4ccc(NC(=S)NC(=O)Cc5ccc(F)cc5)cc4F)c3s2)cn1` [drawing 309], the concentration for half-maximal inhibition (IC50) was less than 250 nM on c-Met; less than 250 nM in the test on DU145 cells; less than 250 nM on VEGF receptor KDR; 250 to 500 nM in the test on A549 cells; less than 250 nM in test [1].
With `COCCNCc1cccc(-c2cc3nccc(Oc4ccc(NC(=O)NC(=O)Cc5ccc(F)cc5)cc4F)c3s2)c1`, the IC50 on c-Met was 250 to 500 nM; in the test with DU145 cells, 250 to 500 nM; on VEGF receptor KDR it was 250 to 500 nM; with A549 cells, more than 1000 nM; in test [1], less than 250 nM.
With `COCCNCc1ccc(-c2cc3nccc(Oc4ccc(NC(=S)NC(=O)Cc5ccccc5F)cc4F)c3s2)cc1`, the IC50 was less than 250 nM at c-Met; 250 to 500 nM in the test with DU145 cells; less than 250 nM at VEGF receptor KDR; 250 to 500 nM with A549 cells; less than 250 nM in test [1].
Turning to `COCCNCc1cnc(-c2cc3nccc(Oc4ccc(NC(=O)CC(=O)Nc5ccccc5)cc4F)c3s2)n1C` [drawing 345], the IC50 at c-Met was less than 250 nM; in the test on DU145 cells, 250 to 500 nM; at VEGF receptor KDR, less than 250 nM; in the test on A549 cells, 250 to 500 nM; in test [1], less than 250 nM.
Take `COCCNCCn1cnc(-c2cc3nccc(Oc4ccc(NC(=S)NC(=O)Cc5ccccc5)cc4F)c3s2)c1`: the IC50 (on c-Met; with DU145 cells; on VEGF receptor KDR; with A549 cells; in test [1]) was less than 250 nM each time.
Take `CS(=O)(=O)CCNCc1ccc(-c2cc3nccc(Oc4ccc(NC(=S)NC(=O)Cc5ccccc5)cc4F)c3s2)cc1`: the IC50 at c-Met is less than 250 nM; with DU145 cells, 250 to 500 nM; on VEGF receptor KDR, less than 250 nM; with A549 cells it was 250 to 500 nM; in test [1], less than 250 nM.
On to `COCCNCc1ccc(-c2cc3nccc(Oc4ccc(NC(=O)CC(=O)N(C)c5ccc(F)cc5)cc4F)c3s2)nc1` [drawing 352], for which the IC50 on c-Met was less than 250 nM; in the test on DU145 cells, 250 to 500 nM; at VEGF receptor KDR it was less than 250 nM; in the test on A549 cells, 250 to 500 nM; in test [1] it was less than 250 nM.
`COCCNCCn1cnc(-c2cc3nccc(Oc4ccc(NC(=S)NC(=O)Cc5ccc(F)cc5)cc4F)c3s2)c1` [drawing 318]: the IC50 at c-Met was less than 250 nM; in the test on DU145 cells, 250 to 500 nM; on VEGF receptor KDR, less than 250 nM; with A549 cells, 250 to 500 nM; in test [1], less than 250 nM.
As for `COCCNCc1ccc(-c2cc3nccc(Oc4ccc(NC(=O)CC(=O)N(C)c5ccccc5)cc4F)c3s2)nc1` [drawing 346], the IC50 on c-Met was less than 250 nM; with DU145 cells it was 250 to 500 nM; on VEGF receptor KDR, less than 250 nM; in the test with A549 cells, 250 to 500 nM; in test [1], less than 250 nM.
On to `COC[C@H](C)NCc1cccc(-c2cc3nccc(Oc4ccc(NC(=S)NC(=O)Cc5ccc(F)cc5)cc4F)c3s2)c1` [drawing 297], for which the half-inhibitory concentration (IC50) at c-Met was less than 250 nM; with DU145 cells it was less than 250 nM; at VEGF receptor KDR, less than 250 nM; in the test on A549 cells, 250 to 500 nM; in test [1] it was less than 250 nM.
Consider `COC[C@H](C)NCc1cccc(-c2cc3nccc(Oc4ccc(NC(=S)NC(=O)Cc5ccccc5)cc4F)c3s2)c1`, for which the IC50 on c-Met is less than 250 nM; with DU145 cells, 250 to 500 nM; at VEGF receptor KDR it was less than 250 nM; in the test on A549 cells, 250 to 500 nM; in test [1] it was less than 250 nM.
With `CS(=O)(=O)CCNCc1ccc(-c2cc3nccc(Oc4ccc(NC(=O)C5(C(=O)Nc6ccccc6)CC5)cc4F)c3s2)cc1` [drawing 340], the half-maximal inhibitory concentration (IC50) (on c-Met; in the test with DU145 cells; on VEGF receptor KDR; with A549 cells; in test [1]) was less than 250 nM throughout.
As for `COCCNCc1ccc(-c2cc3nccc(Oc4ccc(NC(=S)NC(=O)Cc5ccc(F)cc5)cc4F)c3s2)o1`, the IC50 at c-Met is less than 250 nM; with DU145 cells it was more than 1000 nM; on VEGF receptor KDR it was less than 250 nM; in the test with A549 cells, more than 1000 nM; in test [1], less than 250 nM.
Consider `COCCNCc1ccc(-c2cc3nccc(Oc4ccc(NC(=S)NC(=O)Cc5ccccc5)cc4F)c3s2)o1`, for which the IC50 at c-Met is less than 250 nM; in the test with DU145 cells it was more than 1000 nM; on VEGF receptor KDR it was less than 250 nM; with A549 cells, 250 to 500 nM; in test [1] it was less than 250 nM.
Take `COCCNCCc1cccc(-c2cc3nccc(Oc4ccc(NC(=S)NC(=O)Cc5ccc(F)cc5)cc4F)c3s2)c1`: the IC50 at c-Met is less than 250 nM; with DU145 cells, less than 250 nM; on VEGF receptor KDR, less than 250 nM; in the test on A549 cells, 250 to 500 nM; in test [1], less than 250 nM.

As usually defined, the IC50 is the midpoint of a concentration-inhibition curve.
